Where two headings read alike, the source gives them in different places.
What was measured:
A549 human lung cancer = test: s.c. A549 tumor, i.v. treatment, tumor volume (FIG. 8); type: in vivo, mice
Text: Mice were sacrificed when the average tumor volume of the group reached 1500 mm^3.

[1] = tested on: MCF-7/ADR (adriamycin-resistant); test: In vitro sensitivity, sulforhodamine B cytotoxicity assay, MCF-7/ADR (Table 2); type: cell-based, human; details: 72-hour incubation; averaged from two separate experiments
OVCAR-3 cancer cells = details: read-out: GI50 ± S.D. OVCAR-3; 72 hr, SRB assay
Experimental: Briefly, 96-well microtiter plates were inoculated (100 μL/well) with 5×10^3 (A549) or 7.5×10^3 (OVCAR-3) cells/well, in RPMI-1640 supplemented with 10% FBS (growth media). The plates were incubated for 24 hr at 37° C., 100% humidity and 5% CO2. At 24 hours, growth media (100 μL) was added to designated “time zero” plates. Similarly, serial dilutions of drug or vehicle (in media) were added (100 μL aliquots) to the test and vehicle control wells at twice the predetermined highest concentration. There were triplicate wells on each plate and duplicate plates (total 6 wells) for each drug concentration. The test plates were incubated as above for 72 hr. Cells (including time zero plates) were then fixed with 50 μL of 50% trichloroacetic acid (TCA) (w:v) for adherent cells or 80% TCA for suspended cells, and plates refrigerated at 4° C. for 1 hr. […] The bound stain was solubilized with 100 μL of 10 mM Tris buffer and the optical density was read spectrophotometrically at 490 nm (Microplate Reader Model 3550-UV, Bio-Rad, Hercules, Calif.). Percent growth was calculated as follows: (T-T0) / (C-T0)×100; where (T)=mean optical density of treated wells at a given drug concentration, (T0)=mean optical density of time zero wells, and (C)=mean optical density of control wells.

[2] = Experimental: The 20 mg/mL formulation was further diluted to 6 mg/mL in 5% dextrose. […] At 0h, 24h, 1, 2, 3, 4, and 5 weeks samples were chromatographically analyzed by diluting the drugs to 1 mg/mL with 5% dextrose and then mixing 1:1 with acetonitrile. The chromatographic system consisted of a Shimadzu LC100 system with a UV detector. The column used was an Inertsil-ODS2, 150 ×4.6 mm (5 micron particle size) from Keystone Scientific (Bellefonte, Pa.). 20 μL of each sample was injected and read at 227 nm at ambient temperature. […] The constant flow rate was 1 mL/min.
CDF1 mice = test: In vivo toxicity, i.p. x 5, non-tumor bearing mice; details: 30 days observation
Experimental: A separate group (n=5) was injected with concentrations of Cremophor® EL and ethanol (in PBS) equivalent to the highest concentration of the test treatment. Mortality was recorded daily and body weights taken at least twice weekly for an observation period of 30 days.

[3] = tested on: OVCAR-3 human ovarian cancer; test: i.p. OVCAR-3 tumor, i.p. treatment, survival; details: for % ILS / LTS/n (mice that survived to 300 days) / MST Days ± SEM (n) / Median survival time: treated days 20, 22, 24, 26 and 28 i.p.; for MST Days ± SEM (n) / Median survival time: long-term survivors not included
Experimental: C.B-17 SCID female mice were injected i.p. with 5×10^6 OVCAR-3 human ovarian cancer cells (day 0). […] Note that long-term survivors (mice that survived through day 300 after cell inoculation) were not included in mean, median, or % ILS calculations.

[4] = tested on: HT-29 human colon carcinoma cells; test: In vitro sensitivity, sulforhodamine B cytotoxicity assay, HT-29 (Table 2); type: cell-based; details: 72-hour incubation; averaged from two separate experiments
[5] = tested on: MCF-7 human breast carcinoma; test: In vitro sensitivity, sulforhodamine B cytotoxicity assay, MCF-7 (Table 2); type: cell-based; details: 72-hour incubation; averaged from two separate experiments
[6] = tested on: OVCAR-3 human ovarian cancer; test: i.p. OVCAR-3 tumor, i.v. treatment, survival (FIG. 6); type: in vivo, mice
Experimental: Mice were observed daily for mortality and % ILS was calculated as described above.

[7] = tested on: OVCAR-3 human ovarian cancer; test: s.c. OVCAR-3 tumor, i.v. treatment, tumor volume (FIG. 7); type: in vivo, mice
Experimental: OVCAR-3 human ovarian cancer.
The tumor volume (mm^3) from tumor measurement was calculated: (Length * (Width/2)^2 * π). Mice were sacrificed when the average tumor volume of the group reached 1500 mm^3.

CDF1 female mice = test: Acute toxicity of liposomal paclitaxel or paclitaxel derivative given intraperitoneally; details: i.p.; for number of mice that died within the first 14 days post-injection/total: liposomes
Experimental: Moreover, liposomes containing either paclitaxel or a 2′-(2-bromo) hydrophobic paclitaxel derivative (containing either a six-carbon (C-6), C-8, C-12, C-14 or C-16 acyl chain at the 2′ position) were administered, intraperitoneally in 5 doses, to SCID (severe combined inimunodeficiency) mice bearing a human ovarian cancer (OvCar 3), at a dose of 12.5 mg paclitaxel per kg or a dose of 50 mg paclitaxel derivative per kg.
CDF1 female mice, 5 or 10 mice per group, were intraperitoneally administered either paclitaxel-, 2′-C6-paclitaxel derivative-, or 2′-C16-paclitaxel derivative-containing liposomes, in a single dose, or 5 doses, of either 12.5, 25, 50, 100, 200, 300. 400 or 500 mg of paclitaxel or paclitaxel derivative per kg of mouse body weight.

[8] = tested on: A-549 human lung carcinoma; test: In vitro sensitivity, sulforhodamine B cytotoxicity assay, A-549 (Table 2); type: cell-based; details: 72-hour incubation; averaged from two separate experiments
Experimental: Briefly, 96-well microtiter plates were inoculated (100 μL/well) with 5×10^3 (A549) or 7.5×10^3 (OVCAR-3) cells/well, in RPMI-1640 supplemented with 10% FBS (growth media). The plates were incubated for 24 hr at 37° C., 100% humidity and 5% CO2. At 24 hours, growth media (100 μL) was added to designated “time zero” plates. Similarly, serial dilutions of drug or vehicle (in media) were added (100 μL aliquots) to the test and vehicle control wells at twice the predetermined highest concentration. […] Cells (including time zero plates) were then fixed with 50 μL of 50% trichloroacetic acid (TCA) (w:v) for adherent cells or 80% TCA for suspended cells, and plates refrigerated at 4° C. for 1 hr. […] The plates were then air-dried for 24 hr.

Experimental for A549 cancer cells: Briefly, 96-well microtiter plates were inoculated (100 μL/well) with 5×10^3 (A549) or 7.5×10^3 (OVCAR-3) cells/well, in RPMI-1640 supplemented with 10% FBS (growth media). The plates were incubated for 24 hr at 37° C., 100% humidity and 5% CO2. At 24 hours, growth media (100 μL) was added to designated “time zero” plates. Similarly, serial dilutions of drug or vehicle (in media) were added (100 μL aliquots) to the test and vehicle control wells at twice the predetermined highest concentration. There were triplicate wells on each plate and duplicate plates (total 6 wells) for each drug concentration. The test plates were incubated as above for 72 hr. Cells (including time zero plates) were then fixed with 50 μL of 50% trichloroacetic acid (TCA) (w:v) for adherent cells or 80% TCA for suspended cells, and plates refrigerated at 4° C. for 1 hr. The supernatant was discarded (suspended cell plates were first centrifuged) and the wells rinsed six times with tap water and air-dried. One hundred microliters of 0.4% SRB in 1% acetic acid were added to each well and the plates were incubated under ambient (RT) conditions for 10 min. Unbound stain was removed by rinsing the wells three times with 1% acetic acid. The plates were then air-dried for 24 hr. The bound stain was solubilized with 100 μL of 10 mM Tris buffer and the optical density was read spectrophotometrically at 490 nm (Microplate Reader Model 3550-UV, Bio-Rad, Hercules, Calif.). Percent growth was calculated as follows: (T-T0) / (C-T0)×100; where (T)=mean optical density of treated wells at a given drug concentration, (T0)=mean optical density of time zero wells, and (C)=mean optical density of control wells.

CCCCCCCCCCCCCC[C@@H](Br)C(=O)O[C@@H](C(=O)O[C@H]1C[C@@]2(O)[C@@H](OC(=O)c3ccccc3)[C@@H]3[C@]4(OC(C)=O)CO[C@@H]4C[C@H](O)[C@@]3(C)C(=O)[C@H](OC(C)=O)C(=C1C)C2(C)C)[C@@H](NC(=O)c1ccccc1)c1ccccc1 [BrC16HT, 2′-(R)-[2-bromohexadecanoyl] paclitaxel]
efficacy compared with Taxol® at 25 mg/kg (A549 human lung cancer; all early treatment schedules (FIGS. 8a-c), BrC16HT at 12.5 or 25 mg/kg i.v.): more effective than Taxol® at 25 mg/kg
tumor regression compared with Taxol® (A549 human lung cancer; delayed schedule, days 20, 22, 24, 26 and 28, 25 mg/kg i.v. (FIG. 8d)): greater and more prolonged tumor regression
tumor growth vs. control (A549 human lung cancer; i.v., independent of the dose schedule, BrC16HT 12.5-25 mg/kg, Taxol® 25 mg/kg): significantly (p <0.05 vs. control) inhibited the tumor growth
GI50 [1]: > 10 µM
GI50 relative to Taxol® (A549 cancer cells; in both cell lines (A549, OVCAR-3)): approximately ten times higher than Taxol®
GI50 (A549 cancer cells; read-out: GI50 ± S.D. A549, 72 hr, SRB assay): 0.029 ± 0.0059 µM
GI50 (OVCAR-3 cancer cells): 0.02 ± 0.0033 µM
Percentage of BrC16HT in Sample ([2]; 6 mg/mL in Crem/EtOH (50:50), undiluted, storage 4° C., 0 h): 93%
Percentage of BrC16HT in Sample ([2]; 6 mg/mL in Crem/EtOH (50:50), undiluted, storage 4° C., 1 Week): 83%
Percentage of BrC16HT in Sample ([2]; 6 mg/mL in Crem/EtOH (50:50), undiluted, storage 4° C., 2 Week): 93%
Percentage of BrC16HT in Sample ([2]; 6 mg/mL in Crem/EtOH (50:50), undiluted, storage 4° C., 3 Week): 61%
Percentage of BrC16HT in Sample ([2]; 6 mg/mL in Crem/EtOH (50:50), undiluted, storage 4° C., 4 Week): 58%
Percentage of BrC16HT in Sample ([2]; 6 mg/mL in Crem/EtOH (50:50), undiluted, storage 4° C., 5 Week): 53%
Percentage of BrC16HT in Sample ([2]; 6 mg/mL in Crem/EtOH (50:50), undiluted, storage 4° C., 24 h): 89%
Percentage of BrC16HT in Sample ([2]; 6 mg/mL in Crem/EtOH (50:50), undiluted, storage 26° C., 0 h): 95%
Percentage of BrC16HT in Sample ([2]; 6 mg/mL in Crem/EtOH (50:50), undiluted, storage 26° C., 1 Week): 42%
Percentage of BrC16HT in Sample ([2]; 6 mg/mL in Crem/EtOH (50:50), undiluted, storage 26° C., 2 Week): 22%
Percentage of BrC16HT in Sample ([2]; 6 mg/mL in Crem/EtOH (50:50), undiluted, storage 26° C., 3 Week): 14%
Percentage of BrC16HT in Sample ([2]; 6 mg/mL in Crem/EtOH (50:50), undiluted, storage 26° C., 4 Week): 8%
Percentage of BrC16HT in Sample ([2]; 6 mg/mL in Crem/EtOH (50:50), undiluted, storage 26° C., 5 Week): 5%
Percentage of BrC16HT in Sample ([2]; 6 mg/mL in Crem/EtOH (50:50), undiluted, storage 26° C., 24 h): 84%
Percentage of BrC16HT in Sample ([2]; 20 mg/mL in Crem/EtOH (50:50) diluted with 5% dextrose to 6 mg/mL, storage 4° C., 0 h): 92%
Percentage of BrC16HT in Sample ([2]; 20 mg/mL in Crem/EtOH (50:50) diluted with 5% dextrose to 6 mg/mL, storage 4° C., 1 Week): 90%
Percentage of BrC16HT in Sample ([2]; 20 mg/mL in Crem/EtOH (50:50) diluted with 5% dextrose to 6 mg/mL, storage 4° C., 2 Week): 88%
Percentage of BrC16HT in Sample ([2]; 20 mg/mL in Crem/EtOH (50:50) diluted with 5% dextrose to 6 mg/mL, storage 4° C., 3 Week): 83%
Percentage of BrC16HT in Sample ([2]; 20 mg/mL in Crem/EtOH (50:50) diluted with 5% dextrose to 6 mg/mL, storage 4° C., 4 Week): 85%
Percentage of BrC16HT in Sample ([2]; 20 mg/mL in Crem/EtOH (50:50) diluted with 5% dextrose to 6 mg/mL, storage 4° C., 5 Week): 82%
Percentage of BrC16HT in Sample ([2]; 20 mg/mL in Crem/EtOH (50:50) diluted with 5% dextrose to 6 mg/mL, storage 4° C., 24 h): 91%
Percentage of BrC16HT in Sample ([2]; 20 mg/mL in Crem/EtOH (50:50) diluted with 5% dextrose to 6 mg/mL, storage 26° C., 0 h): 97%
Percentage of BrC16HT in Sample ([2]; 20 mg/mL in Crem/EtOH (50:50) diluted with 5% dextrose to 6 mg/mL, storage 26° C., 1 Week): 93%
Percentage of BrC16HT in Sample ([2]; 20 mg/mL in Crem/EtOH (50:50) diluted with 5% dextrose to 6 mg/mL, storage 26° C., 2 Week): 90%
Percentage of BrC16HT in Sample ([2]; 20 mg/mL in Crem/EtOH (50:50) diluted with 5% dextrose to 6 mg/mL, storage 26° C., 3 Week): 81%
Percentage of BrC16HT in Sample ([2]; 20 mg/mL in Crem/EtOH (50:50) diluted with 5% dextrose to 6 mg/mL, storage 26° C., 4 Week): 88%
Percentage of BrC16HT in Sample ([2]; 20 mg/mL in Crem/EtOH (50:50) diluted with 5% dextrose to 6 mg/mL, storage 26° C., 5 Week): 87%
Percentage of BrC16HT in Sample ([2]; 20 mg/mL in Crem/EtOH (50:50) diluted with 5% dextrose to 6 mg/mL, storage 26° C., 24 h): 99%
Number of Mice surviving/Total (CDF1 mice; i.p. days 1 through 5, 12.5 mg/kg): 10/10
Number of Mice surviving/Total (CDF1 mice; i.p. days 1 through 5, 25 mg/kg): 19/19
Number of Mice surviving/Total (CDF1 mice; i.p. days 1 through 5, 37.5 mg/kg): 10/10
Number of Mice surviving/Total (CDF1 mice; i.p. days 1 through 5, 50 mg/kg): 14/20
Number of Mice surviving/Total (CDF1 mice; i.p. days 1 through 5, 75 mg/kg): 0/5
Number of Mice surviving/Total (CDF1 mice; i.p. days 1 through 5, 100 mg/kg): 0/2
survival compared to Taxol® 25 mg/kg ([3]; BrC16HT at both 25 and 50 mg/kg, delayed i.p. schedule): significantly increased survival
long-term survivors (LTS), in words ([3]; delayed i.p. schedule (Table 9b)): clear dose-response effect with regard to LTS
survival of tumor-bearing mice vs. control ([3]; early (days 1, 3, 5, 7 & 9) and delayed (days 20, 22, 24, 26 & 28) i.p. treatment schedules): significantly prolonged (p<0.05 vs. control) the survival
survival time compared with Taxol® at equivalent doses ([3]; early and delayed i.p. schedules): more effective than Taxol® in extending survival time
% ILS ([3]; 25 mg/kg): 115%
LTS/n (mice that survived to 300 days) ([3]; 25 mg/kg): 4/10
MST Days ± SEM (n) ([3]; 25 mg/kg): 220 ± 13 (6) Days
Median survival time ([3]; 25 mg/kg): 221 days
% ILS ([3]; 50 mg/kg): 80%
LTS/n (mice that survived to 300 days) ([3]; 50 mg/kg): 7/10
MST Days ± SEM (n) ([3]; 50 mg/kg): 183 ± 67 (3) Days
Median survival time ([3]; 50 mg/kg): 245 days
GI50 [4]: 0.0595 µM
GI50 [5]: 0.071 µM
medium survival times ([6]; 12.5 mg/kg i.v. on days 20, 22, 24, 26 & 28): 182 days
survival time compared to controls ([6]; 25 mg/kg i.v. on days 20, 22, 24, 26 & 28): significantly prolonged compared to controls (p<0.0001)
survival time vs. control ([6]; 12.5 or 25 mg/kg i.v. on days 1, 3, 5, 7, 9, 42, 44, 46, 48 & 50 (FIG. 6a)): significantly (p<0.05 vs. control) increased the survival time
efficacy compared with Taxol® ([6]; 12.5 or 25 mg/kg i.v., FIG. 6a schedule): more effective than Taxol®
survival time vs. control ([6]; i.v. on days 20, 22, 24, 26 & 28, BrC16HT 12.5 or 25 mg/kg, Taxol® 12.5 mg/kg (FIG. 6b)): significantly (p<0.05 vs. control) increased the survival time
delaying tumor growth ([7]; 12.5 mg/kg i.v. on days 1, 3, 5, 7 & 9): approximately 79 days
tumor growth suppression ([7]; 25 mg/kg i.v. on days 1, 3, 5, 7 & 9): suppressed tumor growth completely up to 120 days post-implantation
tumor growth vs. control ([7]; i.v. on days 1, 3, 5, 7 & 9, BrC16HT 12.5-25 mg/kg, Taxol® 25 mg/kg): significantly (p<0.05 vs. control) inhibited the tumor growth
relative acute toxicity of the liposomes (CDF1 female mice; CDF1 mice): less toxic than were the 2-bromo-C6 paclitaxel derivative-containing liposomes
number of mice that died within the first 14 days post-injection/total (CDF1 female mice; single dose 300 mg/kg): 1/5
number of mice that died within the first 14 days post-injection/total (CDF1 female mice; single dose 400 mg/kg): 1/5
number of mice that died within the first 14 days post-injection/total (CDF1 female mice; single dose 500 mg/kg): 0/5
GI50 [8]: 0.127 µM
